Assay type in all cases: biochemical
Assay [1] addresses Streptomyces avermitilis (4-hydroxyphenyl)pyruvate dioxygenase (Sav HppD) variant Az1 V189A F216A P243A N245Q Q255A L367I, SEQ ID NO: 2 (Streptomyces avermitilis, UniProt Q53586, F216A/L367I/N245Q/P243A/Q255A/V189A). Nature of the assay: Kinetic analysis of 1NF azidation by purified Sav HppD Az1 (anaerobic, GCMS product quantification). The conditions noted are these: Az1 vs wt. The procedure: (§1) FIG. 10 is a series of plots which summarize kinetics for non-heme iron enzyme mediated azidation reactions. The leftmost plot provides kinetics data for wild-type Sav HppD. The middle plot provides kinetics data for Az1 Sav HppD. The rightmost plot provides kinetics data for Az2 Sav HppD.
(§2) Protein expression was conducted following the protocols detailed in section (B). E. coli cells expressing non-heme iron enzyme variants were pelleted (4,000×g, 5 min, 4° C.) and stored at −20° C. for at least 24 hours. The cell pallet was then resuspended in 50 mM KPi buffer containing 100 mM NaCl and 20 mM imidazole (pH 7.5 at 25° C.) (10 mL buffer per gram of cell pellet). […] Fractions containing purified proteins were detected by SDS-PAGE, pooled and concentrated using Millipore® centrifugal filter. […] Final concentration was measured by absorbance at 280 nm using a NanoDrop spectrophotometer. The theoretical extinction coefficients (M^−1 cm^−1) used for Say HppD and its variants were calculated using ExPASy Bioinformatics Resources Portal. […]
(§3) Kinetic analyses for wild-type Sav HppD, Az1, and Az2 mediated 1NF azidation were performed in an anaerobic chamber. […] After centrifugation at 12,000 rpm for 10 mins, an aliquot (200 μL) of the organic layer was taken for GCMS analysis for product quantification.

For assay [2], the target named is Streptomyces avermitilis (4-hydroxyphenyl)pyruvate dioxygenase (Sav HppD) variant Az2 V189A N191A S230L P243G N245F Q255P L367I, SEQ ID NO: 3 (Streptomyces avermitilis, UniProt Q53586, L367I/N191A/N245F/P243G/Q255P/S230L/V189A). Kind of assay: Kinetic analysis of 1NF azidation by purified Sav HppD Az2 (anaerobic, GCMS product quantification). Conditions: comparator not given. How it is done:
as §1, §2, §3

A short description of assay [3]: Replacement of azide with other halide or pseudohalide anions, Sav HppD Az1 cell lysate. How it is done:
We also tried to extend the scope of N-radical precursors and replace azide with other halide or pseudohalide anions, the results of which analyses are summarized in TABLE 5. For these analyses. ferrous ammonium sulfate (10 μL, 100 mM in water), sodium halide or pseudohalide solution (10 μL, 1 M in water), and N-fluoroamide substrate 1NF (10 μL, 400 mM in DME) were added to a 2 mL vial containing Sav HppD Az1 cell lysate (400 μL, obtained from OD600=20 cell suspension) in an anerobic chamber. The vial was capped and shaken at 680 rpm at room temperature for 24 hours. At the end of the reaction, the vial was opened and the reaction was quenched with 0.8 mL of a hexanes/ethylacetate solution (4:6 v/v) of internal standard 1,2,3-trimethoxybenzene (0.5 mM final concentration). The reaction mixture was transferred to a 2 mL microcentrifuge tube, vortexed (10 seconds, 3 times), then centrifuged (14,000×g, 5 min) to completely separate the organic and aqueous layers. […]

[4] abbreviates: Sav HppD Az1 cell lysate (OD600=20), 1NF, GCMS peak area over internal standard, 24 hours.

Where two headings read alike, the source gives them in different places.

Chain of Streptomyces avermitilis (4-hydroxyphenyl)pyruvate dioxygenase (Sav HppD) variant Az1 V189A F216A P243A N245Q Q255A L367I, SEQ ID NO: 2 (Q53586 whole entry V189A/F216A/P243A/N245Q/Q255A/L367I): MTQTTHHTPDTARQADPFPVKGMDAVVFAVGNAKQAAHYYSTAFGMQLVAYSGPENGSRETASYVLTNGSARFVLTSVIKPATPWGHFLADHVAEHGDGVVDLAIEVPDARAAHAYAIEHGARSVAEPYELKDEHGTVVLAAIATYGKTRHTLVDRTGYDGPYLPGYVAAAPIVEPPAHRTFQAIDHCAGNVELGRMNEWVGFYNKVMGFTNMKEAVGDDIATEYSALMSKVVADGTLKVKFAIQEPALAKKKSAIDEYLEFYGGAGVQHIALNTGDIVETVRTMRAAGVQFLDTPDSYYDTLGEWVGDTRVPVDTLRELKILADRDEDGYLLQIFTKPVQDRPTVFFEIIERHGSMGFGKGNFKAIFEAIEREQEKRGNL
Chain of Streptomyces avermitilis (4-hydroxyphenyl)pyruvate dioxygenase (Sav HppD) variant Az2 V189A N191A S230L P243G N245F Q255P L367I, SEQ ID NO: 3 (Q53586 whole entry V189A/N191A/S230L/P243G/N245F/Q255P/L367I): as the sequence (Q53586 whole entry V189A/F216A/P243A/N245Q/Q255A/L367I) above, with N191A, A216F, S230L, A243G, Q245F, A255P counted along it

For the compound `CCc1ccccc1C(=O)N(F)C(C)(C)C` [1NF, N-(tert-butyl)-2-ethyl-N-fluorobenzamide], in assay [1], the “increase in KM over the wild-type enzyme” value turned out to be 1.7 fold and the “increase in kcat over the wild-type enzyme” value is reported as 4.1 fold. In assay [2], the “decrease in KM” value was 6.6 fold and the decrease in kcat is reported as 9 fold.

`[Br-].[Na+]` [NaBr]: in assay [3] (setting [4]), the IA/internal amounted to 2.4 and the IF/internal is 0.04.

In assay [3], `[Cl-].[Na+]` [NaCl] returned an IA/internal of 2.3 and an IF/internal of 0.04.

As to `[F-].[Na+]` [NaF], in assay [3] (setting [4]), the IA/internal amounted to 2.5 and the IF/internal is 0.04.

In assay [3], `O=N[O-].[Na+]` [NaNO2] had an IA/internal of 1.9 and an IF/internal of 0.03.

In assay [3] (setting [4]), `N#C[O-].[Na+]` [NaOCN] returned an IA/internal of 2.1 and an IF/internal of 0.03.

On to `N#C[S-].[Na+]` [NaSCN], for which, in assay [3] (setting [4]), the IA/internal is on record as 2.7 and the IF/internal is listed as 0.05.
